The text below walks through data of PubChem BioAssay (NCI).

Some test systems named below: OVCAR-3 ovarian; IGROV1 ovarian; A498 renal; SK-MEL-5 melanoma; HCT-15 colon; OVCAR-4 ovarian; HCC-2998 colon; SNB-75 CNS; HL-60(TB) leukemia; U251 CNS.
Assay in all cases: growth of human tumour cells (NCI), 48 h

Where “and” joins values, the source holds several entries; their conditions need not be identical. Equal entries are not always repeated.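 Each compound was tested at five concentrations against cells in 96-well plates for 48 hours. GI50: concentration for 50% inhibition of growth. TGI: total growth inhibition.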

Consider `O=c1c(Cl)c(Cl)cnn1CCc1ccncc1`, for which the TGI in the assay with OVCAR-3 ovarian was found to be 31.4 µM; in the assay with IGROV1 ovarian, 33.8 µM; in the assay with A498 renal, 44.6 µM; in the assay on SK-MEL-5 melanoma, 30.4 µM; with HCT-15 colon, 31.3 µM; in the assay with OVCAR-4 ovarian, 33 µM. In addition, the TGI in the assay with HCC-2998 colon worked out at 27.9 µM; in the assay with SNB-75 CNS it was 33.2 µM; with HL-60(TB) leukemia, 87.1 µM.
On to `OB1OCc2cc(/C=C/c3cccc(C(F)(F)F)c3)ccc21`, for which the GI50 was 1.37 µM in the assay with OVCAR-3 ovarian; 1.88 µM in the assay with IGROV1 ovarian; 1.13 µM with A498 renal; 2.05 µM in the assay with SK-MEL-5 melanoma; 1.33 µM with HCT-15 colon; 1.86 µM in the assay with OVCAR-4 ovarian. Besides, the GI50 in the assay on HCC-2998 colon was 2.54 µM; in the assay on SNB-75 CNS, 0.852 µM; in the assay on HL-60(TB) leukemia, 0.298 µM; with U251 CNS it was 0.64 µM. Further, the TGI with OVCAR-3 ovarian was 17.8 µM; in the assay on IGROV1 ovarian it was 60.2 µM; in the assay on A498 renal it was 9.22 µM; in the assay with SK-MEL-5 melanoma it was 81.4 µM; in the assay on HCT-15 colon it was more than 100 µM; with OVCAR-4 ovarian, 17.3 µM. Besides, the TGI was more than 100 µM in the assay with HCC-2998 colon, 6.2 µM with SNB-75 CNS, 5.38 µM in the assay on HL-60(TB) leukemia and 17.3 µM in the assay with U251 CNS.
For the compound `CC(=O)N[C@H](C(=O)N[C@@H](CCCNC(=N)N)C(=O)N[C@@H](CCCCN)C(=O)N[C@@H](CCCNC(=N)N)C(=O)N[C@]1(C)CCCCCC/C=C\CCC[C@@](C)(C(=O)N[C@@H](CCCNC(=N)N)C(=O)N[C@@H](CCC(=O)O)C(=O)N[C@@H](CC(C)C)C(=O)N[C@H](C(=O)N[C@@H](CCC(=O)O)C(N)=O)C(C)C)NC(=O)[C@H](CCC(N)=O)NC(=O)[C@H](CC(C)C)NC(=O)[C@H](CC(C)C)NC(=O)[C@H](CCCNC(=N)N)NC(=O)[C@H](CCCNC(=N)N)NC(=O)[C@H](CC(C)C)NC1=O)C(C)C`, the GI50 in the assay with OVCAR-3 ovarian is 6.16 µM; in the assay on A498 renal it was 9.32 µM; with SK-MEL-5 melanoma, 1.1 µM; with HCT-15 colon it was 3.02 µM; in the assay with OVCAR-4 ovarian, 1.57 µM; with HCC-2998 colon, 4.65 µM. For the same compound, the GI50 with SNB-75 CNS was 1.99 µM; with HL-60(TB) leukemia, 5.19 µM; in the assay on U251 CNS, 3.79 µM. Further, the TGI with OVCAR-3 ovarian is 19.2 µM; in the assay with A498 renal, 22.4 µM; in the assay with SK-MEL-5 melanoma it was 2.62 µM; with HCT-15 colon, 47.3 µM; with OVCAR-4 ovarian, 8.02 µM; in the assay with HCC-2998 colon, 46.6 µM. The TGI in the assay on SNB-75 CNS was 13.1 µM; in the assay with HL-60(TB) leukemia, 18.5 µM; with U251 CNS, 36.6 µM.
Take `CCC1=C[C@@H]2CN(C1)Cc1c([nH]c3ccccc13)[C@@](C(=O)OC)(c1cc3c(cc1OC)N(C)[C@H]1[C@@](O)(C(=O)OC)[C@H](OC(C)=O)[C@]4(CC)[C@@H]5C[C@@H]5CN5CC[C@]31[C@@H]54)C2`: the TGI is 6.87 µM and 14.5 µM in the assay with IGROV1 ovarian; 0.0112 µM and 0.0857 µM in the assay on A498 renal; 0.327 µM and 1.77 µM in the assay with SK-MEL-5 melanoma; 6.21 µM and 16 µM in the assay with HCT-15 colon; 10.7 µM with OVCAR-4 ovarian; 11 µM in the assay on SNB-75 CNS. This compound registered a TGI with U251 CNS of 0.671 µM. Besides, the GI50 in the assay on A498 renal was < 0.005 µM and 0.0144 µM; in the assay on SK-MEL-5 melanoma it was < 0.005 µM and 0.017 µM; in the assay with HCT-15 colon, 0.0162 µM and 0.0881 µM; with OVCAR-4 ovarian, less than 0.005 µM; in the assay on HCC-2998 colon, < 0.005 µM and 0.0211 µM; with HL-60(TB) leukemia, less than 0.005 µM. Moreover, the GI50 with U251 CNS is less than 0.005 µM.
Consider `Cc1cc(N(CCC#N)CCC#N)ccc1/C=C1N=C(/C=C/c2ccccc2)OC(=O)N\1`, for which the TGI in the assay with OVCAR-3 ovarian, with IGROV1 ovarian, in the assay with A498 renal, in the assay with SK-MEL-5 melanoma, in the assay on HCT-15 colon and in the assay with HCC-2998 colon was more than 100 µM each time. Also, the TGI with SNB-75 CNS, in the assay on HL-60(TB) leukemia and with U251 CNS was more than 100 µM in each case.
With `O=C1C(Cl)=C(Nc2ccccc2)C(=O)c2ccccc21`, the GI50 with OVCAR-3 ovarian is 1.67 µM; with IGROV1 ovarian, 1.75 µM; in the assay on A498 renal it was 8.93 µM; in the assay on SK-MEL-5 melanoma, 1.5 µM; with HCT-15 colon, 1.26 µM; with OVCAR-4 ovarian, 1.63 µM. The GI50 is 2.15 µM with HCC-2998 colon, 1.83 µM in the assay on SNB-75 CNS, 1.77 µM in the assay on HL-60(TB) leukemia and 1.8 µM in the assay with U251 CNS. In addition, the TGI with OVCAR-3 ovarian came out at 3.15 µM; with IGROV1 ovarian it was 3.27 µM; in the assay with A498 renal it was 35.3 µM; in the assay with SK-MEL-5 melanoma it was 2.89 µM; in the assay on HCT-15 colon, 2.92 µM; in the assay with OVCAR-4 ovarian, 3 µM. Moreover, the TGI was 4.29 µM in the assay on HCC-2998 colon, 12 µM in the assay on SNB-75 CNS, 5.31 µM in the assay with HL-60(TB) leukemia and 3.24 µM in the assay on U251 CNS.
Take `NC(=O)c1cccc(Nc2nccc(Nc3cccc(F)c3)n2)c1`: the GI50 is 10 µM with OVCAR-3 ovarian; 6.21 µM in the assay with IGROV1 ovarian; 4.3 µM in the assay with A498 renal; 4.9 µM in the assay with SK-MEL-5 melanoma; 7.69 µM in the assay with HCT-15 colon; 4.37 µM in the assay on OVCAR-4 ovarian. Also, the GI50 in the assay on HCC-2998 colon was 18.5 µM; in the assay with SNB-75 CNS, 6.22 µM; in the assay with HL-60(TB) leukemia it was 7.52 µM; in the assay with U251 CNS it was 14.3 µM. Also, the TGI was more than 25 µM in the assay with OVCAR-3 ovarian; more than 21.1 µM with IGROV1 ovarian; 16 µM in the assay on A498 renal; more than 16.3 µM in the assay with SK-MEL-5 melanoma; more than 25 µM with HCT-15 colon; more than 25 µM in the assay with OVCAR-4 ovarian. Further, the TGI is more than 25 µM in the assay on HCC-2998 colon, more than 23.4 µM in the assay with SNB-75 CNS, 20.5 µM with HL-60(TB) leukemia and more than 25 µM in the assay on U251 CNS.
On to `CCCCCCCCCCCCCCCCCCNC(=O)[C@H]1CSC(c2cccs2)N1` (some centres undefined), for which the GI50 is 1.48 µM with OVCAR-3 ovarian; more than 50 µM in the assay with A498 renal; 2.08 µM in the assay with HCT-15 colon; 1.56 µM with OVCAR-4 ovarian; 1.06 µM with HCC-2998 colon; 0.811 µM with SNB-75 CNS. Also, the GI50 in the assay on HL-60(TB) leukemia was 0.919 µM; with U251 CNS, 0.929 µM. Further, the TGI with OVCAR-3 ovarian was 3.97 µM; in the assay on A498 renal, more than 50 µM; in the assay on HCT-15 colon, more than 50 µM; with OVCAR-4 ovarian, more than 50 µM; in the assay with HCC-2998 colon it was 2.31 µM; in the assay on SNB-75 CNS, 1.58 µM. Moreover, the TGI in the assay on HL-60(TB) leukemia turned out to be 2.06 µM; in the assay with U251 CNS it was 1.74 µM.
Consider `CSc1c(C)c(C)nn1-c1ccccc1`, for which the TGI in the assay on IGROV1 ovarian, with A498 renal, in the assay on SK-MEL-5 melanoma, in the assay with HCT-15 colon, in the assay with OVCAR-4 ovarian and in the assay with HCC-2998 colon was more than 100 µM each time. Moreover, the TGI in the assay on SNB-75 CNS, with HL-60(TB) leukemia and in the assay on U251 CNS was more than 100 µM throughout.
Consider `CNC(SC)=C1C(=O)OC(C)(C)OC1=O`, for which the TGI in the assay on OVCAR-3 ovarian is more than 100 µM; in the assay with IGROV1 ovarian, more than 100 µM; in the assay with A498 renal, more than 100 µM; in the assay on SK-MEL-5 melanoma, more than 100 µM; in the assay with HCT-15 colon, 40.9 µM; in the assay on HCC-2998 colon it was more than 100 µM. Besides, the results for the TGI in the assay with SNB-75 CNS, in the assay with HL-60(TB) leukemia and with U251 CNS were more than 100 µM, more than 100 µM and 37.7 µM, respectively.
As for `CC1(C)CC[C@H](C2=CC(=O)c3c(O)ccc(O)c3C2=O)O1`, the GI50 is 2.23 µM and 1.64 µM and 0.669 µM in the assay on OVCAR-3 ovarian; 4.93 µM and 2.48 µM and 1.61 µM in the assay with IGROV1 ovarian; 6.81 µM and 2.57 µM and 1.71 µM with A498 renal; 1.65 µM and 1.36 µM and 0.464 µM in the assay on SK-MEL-5 melanoma; 1.71 µM and 0.378 µM and 0.226 µM with HCT-15 colon; 1.86 µM and 0.311 µM and 0.192 µM with OVCAR-4 ovarian. In addition, the GI50 was 8.53 µM and 2.87 µM and 0.95 µM in the assay with SNB-75 CNS; 0.505 µM and 0.131 µM in the assay on HL-60(TB) leukemia; 3.71 µM and 2.51 µM and 1.5 µM in the assay on U251 CNS. The TGI in the assay on OVCAR-3 ovarian is 4.87 µM and 3.02 µM and 1.61 µM; in the assay on IGROV1 ovarian, 9.58 µM and 5.31 µM and 3.21 µM; in the assay on A498 renal, 13.6 µM and 6.05 µM and 3.58 µM; in the assay on SK-MEL-5 melanoma, 4.08 µM and 2.68 µM and 1.22 µM; in the assay on HCT-15 colon it was 4.11 µM and 1.64 µM and 0.65 µM; in the assay with OVCAR-4 ovarian, 4.3 µM and 1.63 µM and 0.505 µM. In addition, the TGI in the assay on SNB-75 CNS is 27.7 µM and 4.02 µM; in the assay with HL-60(TB) leukemia, 1.36 µM and 0.442 µM; in the assay on U251 CNS, 6.5 µM and 7.21 µM and 3.19 µM.
Take `Cn1c(/C(C#N)=C/c2ccc3ccccc3c2)cc2ccccc21`: the GI50 in the assay on IGROV1 ovarian was 0.225 µM; with A498 renal it was 0.0409 µM; in the assay on SK-MEL-5 melanoma, 0.455 µM; with HCT-15 colon, 0.0934 µM; in the assay on OVCAR-4 ovarian, more than 100 µM; with HCC-2998 colon it was 0.324 µM. Further, the GI50 in the assay on SNB-75 CNS is 0.0628 µM; in the assay on HL-60(TB) leukemia it was 0.21 µM; in the assay with U251 CNS it was 0.249 µM. The TGI was more than 100 µM in the assay with IGROV1 ovarian; 0.552 µM with A498 renal; more than 100 µM in the assay on SK-MEL-5 melanoma; more than 100 µM in the assay on HCT-15 colon; more than 100 µM with OVCAR-4 ovarian; more than 100 µM with HCC-2998 colon. Besides, the figures for the TGI in the assay on SNB-75 CNS, with HL-60(TB) leukemia and in the assay with U251 CNS were more than 92.7 µM, 0.699 µM and more than 100 µM, respectively.
Take `CC(CC(=O)Nc1ccc(NC(=O)CC(C)N=NC(N)=S)cc1)N=NC(N)=S` (centres undefined): the TGI in the assay on OVCAR-3 ovarian, with IGROV1 ovarian, in the assay on A498 renal, in the assay on SK-MEL-5 melanoma, in the assay with HCT-15 colon and with OVCAR-4 ovarian was more than 100 µM in each case. For the same compound, the TGI in the assay on HCC-2998 colon, in the assay with SNB-75 CNS and in the assay on HL-60(TB) leukemia was more than 100 µM each time.
